Marks after values point to notes of the source that are not given here. Where no end group is shown, it is not given here.
Experiments:
[1] = tested on: retinal neovascular clusters in OIR C57/B16 mice; test: Retinal blood vessels in OIR mice; type: in vivo, mouse; conditions: for Neovascular clusters area: retina evaluated on day 17; for Inhibition rate: neovascular clusters area vs control, day 17
Description: Establishment of the OIR model: Exposure of young mouse and their mothers to 75% hyperoxic environment from day 7 to day 12 after birth of C57/B16 mice caused rapid disappearance of capillaries in the central retina. Upon returning to the indoor air on the 12th day, the retinal blood vessels, upon exposing to hyperoxia, rapidly disappeared, causing extensive abnormal neovascularization, and the central portion of the retina remained largely avascular for a long time. After the blood vessels disappeared completely, on the 13th day, physiological saline (negative control group), mPEG-SC-HM-1, mPEG2-NHS-HM-1, mPEG-ALD10k-HM-1, and mPEG-bALD-HM-1, were administered by intravitreal injection and retinal vessels were evaluated on day 17 (to label unclosed vessels, […] of Texas Red-labeled tomato lectin was injected into the left ventricle and circulated for 5 min).

[2] = in vivo
[3] = tested on: adjuvant arthritis (AA) SD rats; test: Adjuvant arthritis (AA) rat model; type: in vivo; conditions: for Joint swelling / Left and right paw swelling / Clinical score: AA SD rats; for Clinical score: maximum score 16
[4] = tested on: Human Umbilical Vein Endothelial Cells (HUVEC); test: Transwell migration of HUVEC; type: cell-based; conditions: 24 h
Experimental: 10 mg/mL Matrigel was diluted 1:2 with HUVEC-specific medium, spread on a transwell chamber membrane, and air-dried at room temperature. HUVEC cells cultured in logarithmic growth phase were digested with trypsin digest, collected, washed twice with PBS, and resuspended in blank HUVECs-specific medium. The cells were counted under a microscope, and the cell concentration was adjusted to 1×10^5/mL. The test solutions of each group were prepared and diluted to 100 μL with a blank HUVECs-specific medium. The cells were seeded into a transwell chamber at 100 μL per well, and each set of test solution was added to the chamber. The cell culture was stimulated by adding 0.6 mL of endothelial cell culture medium containing 5% fetal bovine serum and 1% ECGS into a 24-well plate, and cultured at 5% CO2 for 24 hour at 37° c. Discard the culture medium in the well, fix it with 90% alcohol at room temperature for 30 minutes, 0.1% crystal violet for 10 min at room temperature, rinse with water, gently wipe off the unsprayed cells in the upper layer with a cotton swab, observe under microscope and select four fields to take pictures. Calculate migration inhibition (MI) according to the formula: […]
Ntest was the number of cell migration in the test group, and Ncontrol was the number of cell migration in the blank control group.
The test was repeated 3 times independently. The results obtained from the test were calculated as mean±SD, and a statistical T test was performed. *P<0.05 was a significant difference, and **P<0.01 was a very significant difference.

[5] = tested on: Breast cancer tumor cells; test: MTT proliferation inhibition, breast cancer cells; type: cell-based, human; set-up: concentration or dose not given beside the values; conditions: 48 h
Experimental: (§1) The activity of mPEG-HM-1 to inhibit the growth of various tumor cells was examined by MTT assay. The tumor cells were cultured to a concentration of 90% or more in a 37° C., 5% CO2 incubator and collected by trypsinization. The cells were resuspended in the culture medium and counted under a microscope to adjust the cell concentration to 2×10^4 cells/mL, the cell suspension was inoculated into a 96-well plate at 100 μL/well and incubated overnight at 37° C. in a 5% CO2 incubator. mPEG-HM-1 was diluted with the culture solution to each predetermined concentration. Docetaxel is diluted to the final concentration with the culture medium. After the cells were fully attached, each dilution was added to a 96-well plate (100 μL/well). The mPEG-HM-1 dilution was added as a drug-administered group, and docetaxel was added as a positive control group, and a culture solution without any drug was used as a negative control group. Incubate for 48 h at 37° C. in a 5% CO2 incubator. 5 mg/mL of MTT was added to a 96-well plate at 20 μL per well, and incubation was continued for 4 hours. The medium was aspirated, dissolved in 150 μL of DMSO per well, and gently mixed by shaking for 10 min. The absorbance was measured at a measurement wavelength of 570 nm and a reference wavelength of 630 nm using a microplate reader, and the rate of growth inhibition (proliferation inhibition, PI) was calculated. The formula is as follows: PI (%)=1−administration group/negative group
(§2) The test was repeated 3 times independently, and the results obtained by the test were expressed as mean±SD, and the test results are shown in Table 15 to Table 18.

Brain tumor cells = test: MTT proliferation inhibition, brain tumor cells; type: cell-based, human; set-up: concentration or dose not given beside the values; conditions: 48 h
Experimental: as §1, §2

[6] = tested on: Head and neck cancer tumor cells; test: MTT proliferation inhibition, head and neck cancer cells; type: cell-based, human; set-up: concentration or dose not given beside the values; conditions: 48 h
Experimental: as §1, §2

[7] = tested on: Pancreatic cancer tumor cells; test: MTT proliferation inhibition, pancreatic cancer cells; type: cell-based, human; set-up: concentration or dose not given beside the values; conditions: 48 h
Experimental: as §1, §2

[8] = tested on: Cervical cancer tumor cells; test: MTT proliferation inhibition, cervical cancer cells; type: cell-based, human; set-up: concentration or dose not given beside the values; conditions: 48 h
Experimental: as §1, §2

Lung cancer tumor cells = test: MTT proliferation inhibition, lung cancer cells; type: cell-based, human; set-up: concentration or dose not given beside the values; conditions: 48 h
Experimental: as §1, §2

[9] = 10 mg/kg subcutaneous once every three days
[10] = 20 mg/kg subcutaneous once every three days
[11] = 40 mg/kg subcutaneous once every three days

Row | Substance | AUC0-∞ [2] [mg/L/h] | CL [2] [mL/min/kg] | MRT0-∞ [2] [h] | T1/2β (half-life) [2] [h] | cell migration number (Mean ± SD) ([4]; 50 μg/mL) | inhibition rate of HUVEC migration ([4]; 50 μg/mL) | cell migration number (Mean ± SD) ([4]; 60 μg/mL) | inhibition rate of HUVEC migration ([4]; 60 μg/mL) | rate of growth inhibition [5] [%] | rate of growth inhibition (Brain tumor cells) [%] | rate of growth inhibition [6] [%] | rate of growth inhibition [7] [%] | rate of growth inhibition [8] [%] | rate of growth inhibition (Lung cancer tumor cells) [%] | cell migration number (Mean ± SD) ([4]; 70 μg/mL) | inhibition rate of HUVEC migration ([4]; 70 μg/mL) | cell migration number (Mean ± SD) ([4]; 80 μg/mL) | inhibition rate of HUVEC migration ([4]; 80 μg/mL) | further results
1 | mPEG2-NHS5k-Arg-Gly-Ala-Asp-Arg-Ala-Gly-Gly-Gly-Gly-Arg-Gly-Asp ({mPEG2‑NHS 5 kDa}-RGADRAGGGGRGD) [mPEG2-NHS5k-HM-1] | 4789.25 ± 12.08 | 0.878 ± 0.187 | 8.02 ± 5.04 | 8.85 ± 0.10 | 475.01 ± 50.90 | 54.18% | 590.29 ± 50.72 | 43.06%* | 45.69 ± 12.10 | 40.35 ± 10.29 | 37.13 ± 11.32 | 46.58 ± 13.12 | 49.15 ± 14.23 | 42.83 ± 12.58 | – | – | – | – | Neovascular clusters area ([1]; 25 μg intravitreal injection on day 13): 0.119 ± 0.007 mm^2; Inhibition rate ([1]; 25 μg intravitreal): 46.35%*; Joint swelling [3, 9]: 0.73 ± 0.16 mm; Left and right paw swelling [3, 9]: 3.91 ± 0.73 mm; Clinical score [3, 9]: 5.92 ± 1.04; cell migration number (Mean ± SD) ([4]; 30 μg/mL): 611.33 ± 58.92; inhibition rate of HUVEC migration ([4]; 30 μg/mL): 41.03%*; cell migration number (Mean ± SD) ([4]; 40 μg/mL): 516.16 ± 48.34; inhibition rate of HUVEC migration ([4]; 40 μg/mL): 50.21%
2 | mPEG2-NHS10k-Arg-Gly-Ala-Asp-Arg-Ala-Gly-Gly-Gly-Gly-Arg-Gly-Asp ({mPEG2‑NHS 10 kDa}-RGADRAGGGGRGD) [mPEG2-NHS10k-HM-1] | 4858.62 ± 10.62 | 0.432 ± 0.103 | 13.08 ± 3.66 | 15.27 ± 0.11 | 603.97 ± 40.36 | 41.74%* | 506.83 ± 46.25 | 51.11% | 50.92 ± 13.97 | 47.62 ± 11.11 | 43.52 ± 11.16 | 50.23 ± 14.26 | 54.82 ± 17.10 | 45.28 ± 13.96 | 410.53 ± 48.64 | 60.40% | 563.02 ± 56.22 | 45.69%* | Neovascular clusters area ([1]; 50 μg intravitreal injection on day 13): 0.100 ± 0.006 mm^2; Inhibition rate ([1]; 50 μg intravitreal): 54.63%**; inhibition rate of retinal neovascular clusters ([1]; OIR mice, 50 μg intravitreal injection, evaluated day 17): 54.63%; Joint swelling [3, 10]: 0.69 ± 0.19 mm; Left and right paw swelling [3, 10]: 3.80 ± 0.73 mm; Clinical score [3, 10]: 5.53 ± 1.09; in vivo immune protection effect on adjuvant arthritis model (in words) ([3]; AA rats, subcutaneous, once every three days, vs model group): has the most significant effect
3 | mPEG2-NHS20k-Arg-Gly-Ala-Asp-Arg-Ala-Gly-Gly-Gly-Gly-Arg-Gly-Asp ({mPEG2‑NHS 20 kDa}-RGADRAGGGGRGD) [mPEG2-NHS20k-HM-1] | 4682.53 ± 15.01 | 0.218 ± 0.17 | 18.16 ± 10.22 | 22.38 ± 0.34 | – | – | – | – | 52.68 ± 17.25 | 45.51 ± 10.15 | 46.18 ± 11.22 | 52.13 ± 13.32 | 60.63 ± 19.39 | 50.82 ± 12.68 | 618.48 ± 47.53 | 40.34%* | 512.85 ± 40.86 | 50.53% | Neovascular clusters area ([1]; 100 μg intravitreal injection on day 13): 0.112 ± 0.011 mm^2; Inhibition rate ([1]; 100 μg intravitreal): 49.27%**; Joint swelling [3, 11]: 0.80 ± 0.21 mm; Left and right paw swelling [3, 11]: 3.77 ± 0.66 mm; Clinical score [3, 11]: 5.82 ± 1.03; cell migration number (Mean ± SD) ([4]; 90 μg/mL): 434.68 ± 42.64; inhibition rate of HUVEC migration ([4]; 90 μg/mL): 58.07%; cell migration number (Mean ± SD) ([4]; 100 μg/mL): 562.61 ± 62.34; inhibition rate of HUVEC migration ([4]; 100 μg/mL): 45.73%*

Reference: patent publication US10869931B2, “Polyethylene glycol-modified angiogenesis inhibitor HM-1 and application thereof” (NANJING ANJI BIOLOGICAL TECHNOLOGY CO.,LTD, priority 2016, dated 2020)
